Measurements: ChEMBL document CHEMBL1129217, “Synthesis and pharmacology of the 1,2-dimethylheptyl-8-THC isomers: exceptionally potent cannabinoids” (Bioorg Med Chem Lett, 1997)

Columns and labels:
[1] = system: Mus musculus; experiment: The compound was evaluated in vivo for antinociception (TF) activity in a mouse model; format: functional
[2] = molecular target: Cannabinoid receptor (Homo sapiens, UniProt P34972+P21554); experiment: The affinity of compound for the cannabinoid brain receptor was determined by measuring its ability to displace [3H]CP-55940 from its binding site in a membrane preparation; format: cell membranes
[3] = system: Mus musculus; experiment: The compound was evaluated in vivo for hypothermia(as rectal temperature) in a mouse model; format: functional
[4] = system: Mus musculus; experiment: The compound was evaluated in vivo for spontaneous activity(SA) in a mouse model; format: functional

| SMILES | ED50 [1] [µmol/kg] | Ki [2] [nM] | ED50 [3] [µmol/kg] | ED50 [4] [µmol/kg] |
| --- | --- | --- | --- | --- |
| CCCCCCC(C)(C)c1cc(O)c2c(c1)OC(C)(C)[C@@H]1CC=C(C)C[C@@H]21 | 0.14 | 0.77 | 0.15 | 0.27 |
| CCCCCc1cc(O)c2c(c1)OC(C)(C)[C@@H]1CC=C(C)C[C@@H]21 [DELTA-8-TETRAHYDROCANNABINOL] | 4.5 | – | 4.8 | 2.9 |
| CC1=CC[C@H]2[C@H](C1)c1c(O)cc(C(C)C(C)C3CCCC3)cc1OC2(C)C (stereo partly specified) | 0.18 | 0.81 | 0.19 | 0.12 |
| CC1=CC[C@@H]2[C@@H](C1)c1c(O)cc(C(C)C(C)C3CCCC3)cc1OC2(C)C (stereo partly specified) | 0.42 | 0.84 | 0.63 | 0.45 |
| CC1=CC[C@H]2[C@@H](C1)c1c(O)cc(C(C)C(C)C3CCCC3)cc1OC2(C)C (stereo partly specified) | 0.03 | 0.46 | 0.07 | 0.03 |
| CCCCCCC(C)(C)c1cc(O)c2c(c1)OC(C)(C)[C@@H]1CC=C(CO)C[C@@H]21 | 0.02 | – | 0.05 | 0.01 |
| CC1=CC[C@@H]2[C@H](C1)c1c(O)cc(C(C)C(C)C3CCCC3)cc1OC2(C)C (stereo partly specified) | 0.1 | 0.6 | 0.07 | 0.04 |
